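Five concentrations, 48 hours, 96-well plates. Definition used: TGI = concentration required for complete inhibition of growth.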
What was measured:
Assay in all cases: growth of human tumour cells (NCI), 48 h
[1] = test system: A498 renal
[2] = test system: SK-OV-3 ovarian
[3] = test system: SN12C renal
[4] = test system: MALME-3M melanoma
[5] = test system: NCI-H23 lung
[6] = test system: MDA-MB-231 breast
[7] = test system: MOLT-4 leukemia
[8] = test system: ACHN renal
[9] = test system: MDA-N
[10] = test system: SW-620 colon
[11] = test system: NCI-H522 lung
[12] = test system: OVCAR-5 ovarian
[13] = test system: UO-31 renal
[14] = test system: HOP-62 NSCLC
[15] = test system: SF-539 CNS
[16] = test system: MCF7 breast
[17] = test system: HT29 colon
[18] = test system: UACC-257 melanoma
[19] = test system: U251 CNS
[20] = test system: T-47D breast

Compound: CC(=O)C1(Cc2cccc3ccccc23)S(=O)(=O)OCCOS1(=O)=O
- TGI [1]: 35.7 µM
- TGI [2]: 8.9 µM
- TGI [3]: 25 µM
- TGI [4]: 33 µM
- TGI [5]: 60.4 µM
- TGI [6]: 29.6 µM
- TGI [7]: > 100 µM
- TGI [8]: 38 µM
- TGI [9]: 24.6 µM
- TGI [10]: 39.2 µM
- TGI [11]: 47.7 µM
- TGI [12]: 32.5 µM
- TGI [13]: 29.3 µM
- TGI [14]: 44.8 µM
- TGI [15]: 37.8 µM
- TGI [16]: 39.7 µM
- TGI [17]: 37.4 µM
- TGI [18]: 16.6 µM
- TGI [19]: 31.1 µM
- TGI [20]: 43.3 µM

Compound: O=C(O)c1n[nH][nH]c1=S
- TGI [1]: > 100 µM
- TGI [2]: > 100 µM
- TGI [3]: > 100 µM
- TGI [4]: > 100 µM
- TGI [5]: > 100 µM
- TGI [6]: > 100 µM
- TGI [7]: > 100 µM
- TGI [8]: > 100 µM
- TGI [9]: > 100 µM
- TGI [10]: > 100 µM
- TGI [11]: > 100 µM
- TGI [12]: > 100 µM
- TGI [13]: > 100 µM
- TGI [14]: > 100 µM
- TGI [15]: > 100 µM
- TGI [16]: > 100 µM
- TGI [17]: > 100 µM
- TGI [18]: > 100 µM
- TGI [19]: > 100 µM
- TGI [20]: > 100 µM

Compound: O=[N+]([O-])c1c(F)c(F)c2c(c1F)Nc1ccccc1S2
- TGI [1]: 30.4 µM
- TGI [2]: 35.9 µM
- TGI [3]: 12.8 µM
- TGI [4]: 18.5 µM
- TGI [5]: 7.13 µM
- TGI [6]: 4.76 µM
- TGI [7]: 6.57 µM
- TGI [8]: 29.1 µM
- TGI [9]: 14.5 µM
- TGI [10]: 6.28 µM
- TGI [11]: 10.9 µM
- TGI [12]: 26.5 µM
- TGI [13]: 34 µM
- TGI [14]: 27.6 µM
- TGI [15]: 39.6 µM
- TGI [16]: 17.8 µM
- TGI [17]: 3.63 µM
- TGI [18]: 19.8 µM
- TGI [19]: 3.9 µM
- TGI [20]: 12.1 µM

Compound: CC[C@H](CCCC[C@H]1CC[C@@H]2CC(=O)C[C@H]12)OC
- TGI [1]: > 100 µM
- TGI [2]: > 100 µM
- TGI [3]: > 100 µM
- TGI [4]: > 100 µM
- TGI [5]: > 100 µM
- TGI [6]: > 100 µM
- TGI [7]: > 100 µM
- TGI [8]: > 100 µM
- TGI [9]: > 100 µM
- TGI [10]: > 100 µM
- TGI [11]: > 100 µM
- TGI [12]: > 100 µM
- TGI [13]: > 100 µM
- TGI [14]: > 100 µM
- TGI [15]: > 100 µM
- TGI [16]: > 100 µM
- TGI [17]: > 100 µM
- TGI [18]: > 100 µM
- TGI [19]: > 100 µM
- TGI [20]: > 100 µM

Compound: O=C1Nc2ccccc2C1=Nc1cccc2ncccc12
- TGI [1]: > 100 µM
- TGI [2]: 99.7 µM
- TGI [3]: > 100 µM
- TGI [4]: > 100 µM
- TGI [5]: > 100 µM
- TGI [6]: > 100 µM
- TGI [7]: > 100 µM
- TGI [8]: > 100 µM
- TGI [9]: > 100 µM
- TGI [10]: > 100 µM
- TGI [11]: > 100 µM
- TGI [12]: > 100 µM
- TGI [13]: > 100 µM
- TGI [14]: > 100 µM
- TGI [15]: > 100 µM
- TGI [16]: > 100 µM
- TGI [17]: > 100 µM
- TGI [18]: > 100 µM
- TGI [19]: > 100 µM
- TGI [20]: > 100 µM

Compound: CC1(C)C2C=C(CCN3CCOCC3)CC1C2 (stereo not given)
- TGI [1]: > 100 µM
- TGI [2]: > 100 µM
- TGI [3]: > 100 µM
- TGI [4]: > 100 µM
- TGI [5]: > 100 µM
- TGI [6]: > 100 µM
- TGI [7]: > 100 µM
- TGI [8]: > 100 µM
- TGI [9]: > 100 µM
- TGI [10]: > 100 µM
- TGI [11]: > 100 µM
- TGI [12]: > 100 µM
- TGI [13]: > 100 µM
- TGI [14]: > 100 µM
- TGI [15]: > 100 µM
- TGI [16]: > 100 µM
- TGI [17]: > 100 µM
- TGI [18]: > 100 µM
- TGI [19]: > 100 µM
- TGI [20]: > 100 µM
